Experimental data from patent publication US9737525B2, “Small molecule activators of NRF2 pathway” (The General Hospital Corporation, priority 2013, dated 2017).

What was measured:
[1] = Detection of MIND4 in mouse brain after escalated i.p. dosing; format: in vivo; conditions: brain cortex, intraperitoneal, i.p. daily, escalated 50 to 275 mg/kg, 2 hours after last dose, HPLC, read-out: Concentration in wild type mouse cortices
Experimental: To evaluate whether MIND4 would also confer an anti-inflammatory effect in vivo, pilot studies were performed to assess brain permeability of MIND4 in mice (FIG. 7A-B). MIND4 was solubilized at 5 mg/ml in 7.5% Cremophor EL (BASF)/2.375% Ethanol in PBS, Wild type mice (N=3) were subjected to MIND4 treatment at escalated dosing from 50 mg/kg up to a final dose of 275 mg/kg administered daily by intraperitoneal (i.p.) injection. […] Mice were sacrificed 2 hours following the last drug administration and isolated cortical samples were subjected to HPLC analysis.
Specifically, frozen mouse cortical tissues were extracted in ice cold methanol containing 0.4% acetic acid (approximately 1:6 ratios), probe sonicated for 5 sec and centrifuged at 22000×g for 20 min at 4 C. The supernatant was dried under centrifugation and vacuum and reconstituted with running buffer. Reverse phase-HPLC/ECA separation was accomplished on shisedo MG240 C18 HPLC column (4.6×250 mm, 3μ particle size), flow rate 1 ml/min, using 50% methanol in 0.1M sodium phosphate buffer pH 3, isocratic elution was performed for 20 min using 4 channel electrochemical array. Levels of MIND4 in the brain samples were determined using integrated peak areas and the standard curves

dopaminergic neurons = assay: MPTP mouse model of Parkinson's disease; format: in vivo
Experimental: Male C57BL/6 mice (˜25 g) from Charles River Laboratories, Wilmington, Mass. were housed in temperature- and humidity-controlled rooms with a 12 hr dark: light cycle and had free access to food and water. Subacute MPTP paradigm (20 mg/kg i.p. injection once daily for 4 days) was employed to test dose response of MIND4 at 30 mg/kg, 60 mg/kg, or 90 mg/kg (i.p. 10 min before and 50 min after each MPTP injection). The effective dose of 60 mg/kg was used in the subsequent experiments (i.p. 10 min before and 50 min after each MPTP injection). Control animals received saline (control for MPTP) and 10% propylene glycol and 90% dextrose as vehicle for MIND4 by i.p. Mice were sacrificed 7 days after the last MPTP administration and striatal DA and metabolite HVA were determined by high performance liquid chromatography (HPLC) coupled with electrochemical detection (ECD) Immunostaining for tyrosine hydroxylase (TH), a marker for dopaminergic neurons was performed using mouse anti-TH antibody (Sigma, ST. Louis, Mo.). Total numbers of TH positive neurons in the substantia nigra (SN) were counted under blinded conditions using the Bioquant Image Analysis System (R&M Biometrics, Nashville, Tenn.).
The protective effects of CPD4 have been confirmed in both acute and subchronic PTP paradigms by comprehensive behavioral, neurochemical, and neuropathological evaluations (FIG. 18). CPD4 was administrated i.p. at 20 mg/kg 10 min before and 50 min after MPTP 20 mg/kg i.p. once daily for 4 days (subchronic regimen) (FIG. 18A). High performance liquid chromatography (HPLC) coupled with electrochemical detection was used to show attenuated dopamine (DA) loss induced by MPTP in the striatum (FIG. 18B). Dopaminergic cell counts in the substantia nigra (SN) were also measured in treated mice and compared to the control (MPTP group) (FIG. 18C). Tyrosine hydroxylase (TH) immunostained dopaminergic neurons were also imaged in the SN (FIG. 18D).

primary human monocytes = assay: LDH cell death assay in primary human monocytes; format: cell-based; conditions: any concentration
Experimental: Blood samples were obtained from control subjects and genetically-diagnosed, symptomatic HD patients. Patients were classed as having early or moderate-stage disease using the total functional capacity (TFC) scale (13-7, early; 6-3, moderate) [Marder, 2000]. Subjects with inflammatory or infective conditions were excluded. Cells were isolated from whole blood, as previously described [Björkqvist, 2008]. In brief, 50 ml whole blood was collected in heparin (CP Pharmaceuticals) and leukocytes were isolated by density gradient centrifugation. Monocytes were sorted via magnetic cell separation columns using anti-CD14 microbeads (Miltenyi Biotec). Monocytes were seeded at 1×10^5 cells per well in 96-well PRIMARIA™ tissue culture plates (BD Falcon) with R10 media (RPMI culture medium supplemented with 10% FCS, 2 mM L-glutamine, 50 U/ml penicillin and […] streptomycin (Invitrogen)). […] Supernatants were analyzed using the human pro-inflammatory II (4-plex) MSD assay measuring IL-1b, IL-6, IL-8 and TNFα. […] Cell death was measured using a LDH assay (CytoTox-Fluor™ Cytotoxicity Assay from Promega). Normalized cytokine levels have been analyzed on the logarithmic scale due to their skewed distribution. […] Contrasts of interest were then calculated using linear combinations of parameter estimates.

Compound | concentration at 2 h [1] [nM] | MPTP induced DA loss in the striatum (dopaminergic neurons; 60 mg/kg i.p.) | Residual DA and DA turnover rate (HVA/DA) (dopaminergic neurons; 60 mg/kg vs MPTP group) | Dopaminergic neurons in the SN (stereological analysis) (dopaminergic neurons; vs MPTP alone group) | Toxic effect on viability of primary human monocytes (primary human monocytes)
O=[N+]([O-])c1ccc(Sc2nnc(COc3ccccc3)n2-c2ccccc2)c2ncccc12 [MIND4, 5-nitro-8-{[5-(phenoxymethyl)-4-phenyl-4H-1,2,4-triazol-3-yl]thio}quinoline] | ~500 | mild but significant protection | increased level of residual DA and decreased DA turnover rate | more remaining dopaminergic neurons | –
O=[N+]([O-])c1ccc(Sc2nnc(COc3ccccc3)n2-c2ccccc2)nc1 [MIND4-17] | – | – | – | – | Neither vehicle (DMSO) or MIND4-17 had a toxic effect
